Measurements reported in PubChem BioAssay (NCI).
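Five concentrations, 48 hours, 96-well plates. At the GI50, growth is halved. TGI marks complete inhibition of growth.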

Assays:
Assay in all cases: NCI tumour cell line growth inhibition, 48 h
[1] = system: NCI-H522 lung
[2] = system: BT-549 breast
[3] = system: CAKI-1 renal
[4] = system: RPMI-8226 leukemia
[5] = system: MDA-MB-435
[6] = system: MDA-N
[7] = system: SN12C renal
[8] = system: OVCAR-4 ovarian
[9] = system: MOLT-4 leukemia
[10] = system: NCI-H226 lung

Compound	TGI [1] [µM]	TGI [2] [µM]	TGI [3] [µM]	TGI [4] [µM]	TGI [5] [µM]	TGI [6] [µM]	TGI [7] [µM]	TGI [8] [µM]	TGI [9] [µM]	TGI [10] [µM]	GI50 [1] [µM]	GI50 [10] [µM]	GI50 [2] [µM]	GI50 [3] [µM]	GI50 [4] [µM]	GI50 [5] [µM]	GI50 [7] [µM]	GI50 [8] [µM]	GI50 [9] [µM]
NC1=NCC(CN2CCCC2)O1 (stereo not given)	> 100	> 100	> 100	> 100	> 100	> 100	> 100	> 100	> 100	–	–	–	–	–	–	–	–	–	–
Cc1ccc(S(=O)(=O)N(CC(O)COc2ccccc2)c2ccc(F)cc2F)cc1 (stereo not given)	–	–	29.9	34.5	31.4	29.8	34.2	23.8	94.2	41.9	–	–	–	–	–	–	–	–	–
CC(=O)CC(=O)CCC(=O)O	> 100	–	> 100	–	–	–	> 100	–	> 100	> 100	–	–	–	–	–	–	–	–	–
COC(=O)[C@@H]1CN(C(=O)c2ccccc2)C(=O)N1C(=O)OCc1ccccc1	> 100	–	> 100	> 100	> 100	> 100	> 100	> 100	> 100	> 100	–	–	–	–	–	–	–	–	–
CC(=O)O[C@H]1CC[C@@]2(C)[C@H](CC[C@@H]3[C@@H]2CC[C@]2(C)[C@@H](c4ccc(=O)oc4)C[C@H]4O[C@]342)C1	1.23	–	1.31	5.1	–	–	9.49	3.86	0.556	7.75	–	–	–	–	–	–	–	–	–
O=C(Nc1cccc(-n2cc(-c3ccncc3)c(-c3ccc(O)c(Cl)c3)n2)c1)c1cccc(C(F)(F)F)c1	> 100	> 100	> 100	10.6	> 100	–	> 100	> 100	> 100	> 100	2.49	7.17	3.34	2.83	2.04	3.57	6.44	5.33	2.96
COc1c(C)c(C/C=C(\C)CC/C=C(\C)CCC=C(C)C)c(OC)c(OC)c1OC	> 100	> 100	> 100	–	> 100	> 100	> 100	> 100	> 100	–	–	–	–	–	–	–	–	–	–
Cc1cc2cc3c(cc2c(-c2ccc(N)cc2)n1)OCO3	> 100	> 100	75.4	73.7	> 100	> 100	> 100	–	39.6	–	–	–	–	–	–	–	–	–	–
CC1(C2CCC3(C)OC3C2)CO1 (stereo not given)	> 100	–	> 100	> 100	–	–	> 100	> 100	> 100	> 100	–	–	–	–	–	–	–	–	–
CCOP(=O)(OCC)/C(C#N)=C/c1cccn1Cc1ccccc1	86.8	74.7	> 100	–	42	92.4	> 100	–	75.5	51.8	–	–	–	–	–	–	–	–	–
CC(=O)/C(=C\c1ccc(Cl)c(Cl)c1)C(=O)C(C)CN(C)C (stereo not given)	–	8.92	17.1	3.63	12.3	16.2	20.6	–	6.6	14.9	–	–	–	–	–	–	–	–	–
